Laboratory results as given in PMC5218480 (PLoS ONE, 2017).

Test system: MV-4-11 cells
Experiment: Gene expression microarray analysis (Affymetrix PrimeView) and GSEA
Type: cell-based, human
Set-up: RFU PODN (11730768_x_at) / Fold change /veh PODN (11730768_x_at) / RFU LINC00158 (11744669_a_at) / Fold change /veh LINC00158 (11744669_a_at) / RFU DUSP10 (11751237_a_at) / Fold change /veh DUSP10 (11751237_a_at) / RFU ID3 (11757404_x_at) / Fold change /veh ID3 (11757404_x_at) / RFU PLEKHG5 (11737974_s_at) / Fold change /veh PLEKHG5 (11737974_s_at) / RFU LRRC4B (11730491_at) / Fold change /veh LRRC4B (11730491_at) / RFU GIMAP4 (11747438_a_at) / Fold change /veh GIMAP4 (11747438_a_at) / RFU KRT8 (11758183_x_at) / Fold change /veh KRT8 (11758183_x_at) / RFU CNN1 (11734310_a_at) / Fold change /veh CNN1 (11734310_a_at) / RFU VPS37D (11726825_at) / Fold change /veh VPS37D (11726825_at) / RFU C10orf10 (11716522_x_at) / Fold change /veh C10orf10 (11716522_x_at) / RFU KIR2DL2 /// KIR2DL4 /// KIR2DL5A /// KIR2DL5B /// KIR2DS1 /// KIR2DS2 /// KIR2DS3 /// KIR2DS4 /// KIR3DL3 /// KIR3DL3 /// KIR3DS1 (11738374_at) / Fold change /veh KIR2DL2 /// KIR2DL4 /// KIR2DL5A /// KIR2DL5B /// KIR2DS1 /// KIR2DS2 /// KIR2DS3 /// KIR2DS4 /// KIR3DL3 /// KIR3DL3 /// KIR3DS1 (11738374_at) / RFU C1QL1 (11718748_at) / Fold change /veh C1QL1 (11718748_at) / RFU TMPRSS4 (11747572_a_at) / Fold change /veh TMPRSS4 (11747572_a_at) / RFU HAMP (11756126_x_at) / Fold change /veh HAMP (11756126_x_at) / RFU RNFT2 (11725882_a_at) / Fold change /veh RNFT2 (11725882_a_at) / RFU NR4A2 (11747474_a_at) / Fold change /veh NR4A2 (11747474_a_at) / RFU ABCC12 (11746883_a_at) / Fold change /veh ABCC12 (11746883_a_at) / RFU TMEM136 (11760407_x_at) / Fold change /veh TMEM136 (11760407_x_at) / RFU CLDN22 /// WWC2 (11732394_at) / Fold change /veh CLDN22 /// WWC2 (11732394_at) / RFU HLA-DPB1 (11760878_x_at) / Fold change /veh HLA-DPB1 (11760878_x_at) / RFU SPINT1 (11716480_a_at) / Fold change /veh SPINT1 (11716480_a_at) / RFU GAP43 (11754022_s_at) / Fold change /veh GAP43 (11754022_s_at) / RFU A4GNT (11735810_at) / Fold change /veh A4GNT (11735810_at) / RFU PRB3 (11715151_x_at) / Fold change /veh PRB3 (11715151_x_at) / RFU TUBB4B (11761932_at) / Fold change /veh TUBB4B (11761932_at) / RFU CAPN14 (11732068_a_at) / Fold change /veh CAPN14 (11732068_a_at) / RFU TMCC2 (11721928_a_at) / Fold change /veh TMCC2 (11721928_a_at) / RFU IRGQ (11745062_a_at) / Fold change /veh IRGQ (11745062_a_at) / RFU FAM174B (11720279_a_at) / Fold change /veh FAM174B (11720279_a_at) / RFU TMPRSS4 (11748680_a_at) / Fold change /veh TMPRSS4 (11748680_a_at) / RFU FAM212B (11763350_a_at) / Fold change /veh FAM212B (11763350_a_at) / RFU PLEKHG5 (11743358_a_at) / Fold change /veh PLEKHG5 (11743358_a_at) / RFU ZSCAN30 (11745921_a_at) / Fold change /veh ZSCAN30 (11745921_a_at) / RFU CMKLR1 (11741424_a_at) / Fold change /veh CMKLR1 (11741424_a_at) / RFU LOC101060620 /// MAPK8IP1 (11723275_at) / Fold change /veh LOC101060620 /// MAPK8IP1 (11723275_at) / RFU SPTSSB (11747773_x_at) / Fold change /veh SPTSSB (11747773_x_at) / RFU PRSS12 (11739890_at) / Fold change /veh PRSS12 (11739890_at) / RFU BIN1 (11741810_x_at) / Fold change /veh BIN1 (11741810_x_at) / RFU WNT11 (11732464_a_at) / Fold change /veh WNT11 (11732464_a_at) / RFU C10orf10 (11716521_a_at) / Fold change /veh C10orf10 (11716521_a_at) / RFU C5orf56 (11738089_at) / Fold change /veh C5orf56 (11738089_at) / RFU CYB561 (11721691_x_at) / Fold change /veh CYB561 (11721691_x_at) / RFU ANKRD19P (11752326_a_at) / Fold change /veh ANKRD19P (11752326_a_at) / RFU OR2T12 /// OR2T33 /// OR2T8 (11738714_s_at) / Fold change /veh OR2T12 /// OR2T33 /// OR2T8 (11738714_s_at) / RFU VCAN (11748164_a_at) / Fold change /veh VCAN (11748164_a_at) / RFU JSRP1 (11732532_at) / Fold change /veh JSRP1 (11732532_at) / RFU KRTAP10-11 (11738290_x_at) / Fold change /veh KRTAP10-11 (11738290_x_at) / RFU MYO3A (11730013_a_at) / Fold change /veh MYO3A (11730013_a_at) / RFU EBF3 (11725865_a_at) / Fold change /veh EBF3 (11725865_a_at) / RFU CAMK2N1 (11719241_x_at) / Fold change /veh CAMK2N1 (11719241_x_at) / RFU C5orf56 (11738088_a_at) / Fold change /veh C5orf56 (11738088_a_at) / RFU OLFML3 (11715873_a_at) / Fold change /veh OLFML3 (11715873_a_at) / RFU LOC100653217 /// NTM (11731650_a_at) / Fold change /veh LOC100653217 /// NTM (11731650_a_at) / RFU MAPK11 (11762145_a_at) / Fold change /veh MAPK11 (11762145_a_at) / RFU FIZ1 (11724087_x_at) / Fold change /veh FIZ1 (11724087_x_at) / RFU OASL (11726364_x_at) / Fold change /veh OASL (11726364_x_at) / RFU SOX15 (11748057_x_at) / Fold change /veh SOX15 (11748057_x_at) / RFU CD79A (11719716_a_at) / Fold change /veh CD79A (11719716_a_at) / RFU HIST1H1D (11736915_at) / Fold change /veh HIST1H1D (11736915_at) / RFU CASKIN2 (11723855_a_at) / Fold change /veh CASKIN2 (11723855_a_at) / RFU LOC730098 (11760151_x_at) / Fold change /veh LOC730098 (11760151_x_at) / RFU OR4N2 (11742367_at) / Fold change /veh OR4N2 (11742367_at) / RFU PRRT2 (11749266_a_at) / Fold change /veh PRRT2 (11749266_a_at) / RFU SNX32 (11753110_a_at) / Fold change /veh SNX32 (11753110_a_at) / RFU CDHR5 (11726645_a_at) / Fold change /veh CDHR5 (11726645_a_at) / RFU RCAN1 (11760418_a_at) / Fold change /veh RCAN1 (11760418_a_at) / RFU FAM167A (11723789_a_at) / Fold change /veh FAM167A (11723789_a_at) / RFU FAM26E (11764081_at) / Fold change /veh FAM26E (11764081_at) / RFU ISYNA1 (11749810_s_at) / Fold change /veh ISYNA1 (11749810_s_at) / RFU ACY1 (11761880_at) / Fold change /veh ACY1 (11761880_at) / RFU 11764098_at / Fold change /veh 11764098_at / RFU SAMD14 (11745864_x_at) / Fold change /veh SAMD14 (11745864_x_at) / RFU NPB (11741838_a_at) / Fold change /veh NPB (11741838_a_at) / RFU TMPRSS6 (11731388_a_at) / Fold change /veh TMPRSS6 (11731388_a_at) / RFU KRTAP10-2 (11738614_at) / Fold change /veh KRTAP10-2 (11738614_at) / RFU ARHGAP8 /// PRR5-ARHGAP8 (11727945_x_at) / Fold change /veh ARHGAP8 /// PRR5-ARHGAP8 (11727945_x_at) / RFU KRTAP5-7 /// NADSYN1 (11734609_at) / Fold change /veh KRTAP5-7 /// NADSYN1 (11734609_at) / RFU RASL12 (11751679_a_at) / Fold change /veh RASL12 (11751679_a_at) / RFU CDKN2B (11736163_a_at) / Fold change /veh CDKN2B (11736163_a_at) / RFU PRF1 (11729649_at) / Fold change /veh PRF1 (11729649_at) / RFU, ZNF638 /// ZNF638-IT1 / Fold change vs veh, ZNF638 /// ZNF638-IT1 / RFU, PANK3 / Fold change vs veh, PANK3 / RFU, SH3YL1 / Fold change vs veh, SH3YL1 / RFU, ZEB2 / Fold change vs veh, ZEB2 / RFU, NRIP1 / Fold change vs veh, NRIP1 / RFU, PTTG1IP / Fold change vs veh, PTTG1IP / RFU, CAPN2 / Fold change vs veh, CAPN2 / RFU, MED14 / Fold change vs veh, MED14 / RFU, SNORA58 / Fold change vs veh, SNORA58 / RFU, C1orf63 / Fold change vs veh, C1orf63 / RFU, LRRFIP1 / Fold change vs veh, LRRFIP1 / RFU, NDUFAF7 / Fold change vs veh, NDUFAF7 / RFU, SLC12A2 / Fold change vs veh, SLC12A2 / RFU, IBTK / Fold change vs veh, IBTK / RFU, ESF1 / Fold change vs veh, ESF1 / Fold change vs veh, TMEM50B / RFU, TAOK1 / Fold change vs veh, TAOK1 / RFU, ACBD3 / Fold change vs veh, ACBD3 / RFU, TMA16 / Fold change vs veh, TMA16 / RFU, RWDD3 / Fold change vs veh, RWDD3 / RFU, BCAT1 / Fold change vs veh, BCAT1 / RFU, EDEM3 / Fold change vs veh, EDEM3 / RFU, TMEM33 / Fold change vs veh, TMEM33 / RFU, WDR75 / Fold change vs veh, WDR75 / RFU, AHCTF1 / Fold change vs veh, AHCTF1 / RFU, TFRC / Fold change vs veh, TFRC / RFU, ZDHHC17 / Fold change vs veh, ZDHHC17 / RFU, NOM1 / Fold change vs veh, NOM1 / RFU, ARL8B / Fold change vs veh, ARL8B / RFU, ZBTB11 / Fold change vs veh, ZBTB11 / RFU, TAMM41 / Fold change vs veh, TAMM41 / RFU, KIAA1704 /// LOC100996395 / Fold change vs veh, KIAA1704 /// LOC100996395 / RFU, ING1 / Fold change vs veh, ING1 / RFU, TRMT61B / Fold change vs veh, TRMT61B / RFU, FUBP3 / Fold change vs veh, FUBP3 / RFU, TP53 / Fold change vs veh, TP53 / RFU, TNKS2 / Fold change vs veh, TNKS2 / RFU, ZFP14 / Fold change vs veh, ZFP14 / RFU, ACTR2 / Fold change vs veh, ACTR2 / RFU, PPP3R1 / Fold change vs veh, PPP3R1 / RFU, PIK3R1 / Fold change vs veh, PIK3R1 / RFU, HNRNPA1 / Fold change vs veh, HNRNPA1 / RFU, RNF170 / Fold change vs veh, RNF170 / RFU, ZNF28 / Fold change vs veh, ZNF28 / RFU, RNGTT / Fold change vs veh, RNGTT / RFU, OGT / Fold change vs veh, OGT / RFU, BRD1 / Fold change vs veh, BRD1 / RFU, MARS / Fold change vs veh, MARS / RFU, ZNF655 / Fold change vs veh, ZNF655 / RFU, FAHD1 / Fold change vs veh, FAHD1 / RFU, BDP1 / Fold change vs veh, BDP1 / RFU, LRRCC1 / Fold change vs veh, LRRCC1 / RFU, ARID1A / Fold change vs veh, ARID1A / RFU, ZNF146 / Fold change vs veh, ZNF146 / RFU, ZNF330 / Fold change vs veh, ZNF330 / RFU, GPN3 / Fold change vs veh, GPN3 / RFU, C9orf123 / Fold change vs veh, C9orf123 / RFU, N4BP2L2 / Fold change vs veh, N4BP2L2 / RFU, ARFIP1 / Fold change vs veh, ARFIP1 / RFU, FAM179B / Fold change vs veh, FAM179B / RFU, BCL10 / Fold change vs veh, BCL10 / RFU, UHRF1BP1L / Fold change vs veh, UHRF1BP1L / RFU, BET1 / Fold change vs veh, BET1 / RFU, CNOT2 / Fold change vs veh, CNOT2 / RFU, ZNF268 / Fold change vs veh, ZNF268 / Fold change vs veh, ZNF507 / RFU, DGCR2 / Fold change vs veh, DGCR2 / RFU, WDSUB1 / Fold change vs veh, WDSUB1 / Fold change vs veh, HSP90B1 /// MIR3652 / RFU, ADSS / Fold change vs veh, ADSS / RFU, GK / Fold change vs veh, GK / RFU, ZNF148 / Fold change vs veh, ZNF148 / RFU, TAF9 / Fold change vs veh, TAF9 / RFU, SLC1A5 / Fold change vs veh, SLC1A5 / RFU, SLMO2 / Fold change vs veh, SLMO2 / RFU, ABCC4 / Fold change vs veh, ABCC4 / RFU, LOC101060439 /// RAP1B / Fold change vs veh, LOC101060439 /// RAP1B / RFU, RFX7 / Fold change vs veh, RFX7 / RFU, GTPBP10 / Fold change vs veh, GTPBP10 / RFU, CNEP1R1 / Fold change vs veh, CNEP1R1 / RFU, BIVM-ERCC5 /// ERCC5 / Fold change vs veh, BIVM-ERCC5 /// ERCC5 / RFU, ILF3 / Fold change vs veh, ILF3 / RFU 11762660_at / Fold change /veh 11762660_at / RFU VCAN (11757783_s_at) / Fold change /veh VCAN (11757783_s_at) / RFU DDX43 (11728927_at) / Fold change /veh DDX43 (11728927_at) / RFU KRT8 (11758188_x_at) / Fold change /veh KRT8 (11758188_x_at) / RFU NKD1 (11759106_at) / Fold change /veh NKD1 (11759106_at) / RFU SRD5A1 (11742802_a_at) / Fold change /veh SRD5A1 (11742802_a_at) / RFU TPSAB1 /// TPSB2 (11721975_s_at) / Fold change /veh TPSAB1 /// TPSB2 (11721975_s_at) / RFU GSTM3 (11746129_a_at) / Fold change /veh GSTM3 (11746129_a_at) / RFU IL23R (11737362_x_at) / Fold change /veh IL23R (11737362_x_at) / RFU TMEM51 (11727254_a_at) / Fold change /veh TMEM51 (11727254_a_at) / RFU PIWIL2 (11732686_x_at) / Fold change /veh PIWIL2 (11732686_x_at) / RFU ORM1 (11744905_x_at) / Fold change /veh ORM1 (11744905_x_at) / RFU CCDC152 (11743942_at) / Fold change /veh CCDC152 (11743942_at) / RFU ECM1 (11717891_a_at) / Fold change /veh ECM1 (11717891_a_at) / RFU IL23R (11748794_a_at) / Fold change /veh IL23R (11748794_a_at) / RFU TNFAIP8L3 (11732012_x_at) / Fold change /veh TNFAIP8L3 (11732012_x_at) / RFU MBOAT4 (11741988_at) / Fold change /veh MBOAT4 (11741988_at) / RFU 11764193_at / Fold change /veh 11764193_at / RFU TMEM53 (11763286_at) / Fold change /veh TMEM53 (11763286_at) / RFU MAGEB2 (11727129_at) / Fold change /veh MAGEB2 (11727129_at) / RFU TMEM200A (11744735_a_at) / Fold change /veh TMEM200A (11744735_a_at) / RFU CCDC152 (11751479_a_at) / Fold change /veh CCDC152 (11751479_a_at) / RFU FAM211A (11726209_a_at) / Fold change /veh FAM211A (11726209_a_at) / RFU RGS16 (11746705_a_at) / Fold change /veh RGS16 (11746705_a_at) / RFU VCAN (11755009_s_at) / Fold change /veh VCAN (11755009_s_at) / RFU RHOB (11743442_s_at) / Fold change /veh RHOB (11743442_s_at) / RFU RGS16 (11720943_a_at) / Fold change /veh RGS16 (11720943_a_at) / RFU RGS16 (11720944_at) / Fold change /veh RGS16 (11720944_at) / RFU, VPS4B / Fold change vs veh, VPS4B / RFU, CREB1 / Fold change vs veh, CREB1 / RFU, DNAJC13 / Fold change vs veh, DNAJC13 / RFU, GNAQ / Fold change vs veh, GNAQ / RFU, CDK5R1 / Fold change vs veh, CDK5R1 / RFU, ZRANB3 / Fold change vs veh, ZRANB3 / RFU, CUL4A / Fold change vs veh, CUL4A / RFU, CCNY / Fold change vs veh, CCNY / RFU, UFL1 / Fold change vs veh, UFL1 / RFU, COG3 / Fold change vs veh, COG3 / RFU, DIAPH2 / Fold change vs veh, DIAPH2 / RFU, SKA2 / Fold change vs veh, SKA2 / RFU, AFF3 / Fold change vs veh, AFF3 / RFU, LMF1 / Fold change vs veh, LMF1 / RFU, IPO11 / Fold change vs veh, IPO11 / RFU, DFFB / Fold change vs veh, DFFB / RFU, FOXP1 / Fold change vs veh, FOXP1 / RFU, CARD8 / Fold change vs veh, CARD8 / RFU, STRN3 / Fold change vs veh, STRN3 / RFU, ADK / Fold change vs veh, ADK / RFU, RASSF2 / Fold change vs veh, RASSF2 / RFU, WIPF1 / Fold change vs veh, WIPF1 / RFU, LARP1B / Fold change vs veh, LARP1B / RFU, RASA1 / Fold change vs veh, RASA1 / RFU, RB1 / Fold change vs veh, RB1 / RFU, PPFIA1 / Fold change vs veh, PPFIA1 / RFU, MAT2A / Fold change vs veh, MAT2A / RFU, CCT5 / Fold change vs veh, CCT5 / RFU, WDR92 / Fold change vs veh, WDR92 / RFU, CUX1 / Fold change vs veh, CUX1 / RFU, TTC7A / Fold change vs veh, TTC7A / RFU, TMEM135 / Fold change vs veh, TMEM135 / RFU, DEPTOR / Fold change vs veh, DEPTOR / RFU, CPM / Fold change vs veh, CPM / RFU, DNAJB6 / Fold change vs veh, DNAJB6 / RFU, CACNA2D3 / Fold change vs veh, CACNA2D3 / RFU, DTX4 / Fold change vs veh, DTX4 / RFU, TFCP2 / Fold change vs veh, TFCP2 / RFU, GMCL1 /// GMCL1P1 / Fold change vs veh, GMCL1 /// GMCL1P1 / RFU, AEBP2 / Fold change vs veh, AEBP2 / RFU, SNHG1 /// SNORD22 /// SNORD25 /// SNORD26 /// SNORD27 /// SNORD28 /// SNORD29 /// SNORD31 / Fold change vs veh, SNHG1 /// SNORD22 /// SNORD25 /// SNORD26 /// SNORD27 /// SNORD28 /// SNORD29 /// SNORD31 / Fold change (Aza/veh), C12orf56 (ProbeSet 11735607_a_at) / Fold change (ACY-1035/veh), C12orf56 (ProbeSet 11735607_a_at) / Fold change (Aza/veh), FGFR1OP (ProbeSet 11751329_s_at) / Fold change (ACY-1035/veh), FGFR1OP (ProbeSet 11751329_s_at) / Fold change (Aza/veh), VPS36 (ProbeSet 11739960_a_at) / Fold change (ACY-1035/veh), VPS36 (ProbeSet 11739960_a_at) / RFU SYPL1 (11715823_x_at) / Fold change /veh SYPL1 (11715823_x_at) / RFU IGFBP7 (11715501_s_at) / Fold change /veh IGFBP7 (11715501_s_at) / RFU REEP3 (11722064_at) / Fold change /veh REEP3 (11722064_at) / RFU IGLL1 (11728026_x_at) / Fold change /veh IGLL1 (11728026_x_at): dose or concentration left out as unconfirmed
Details: MV-4-11 cells, 48 hours

Nc1ncn([C@@H]2O[C@H](CO)[C@@H](O)[C@H]2O)c(=O)n1 [azacitidine]
RFU KRTAP5-7 /// NADSYN1 (11734609_at): 11.87 RFU
